Measured values published in patent US20210155611A1, “THE SALTS OF A COMPOUND AND THE CRYSTALLINE FORMS THEREOF” (Flutchison Medipharma Limited, priority 2017, published 2021).
Values after ≈ are worked out from the molar mass of the structure shown. “Also recorded” adds a separate entry of the source.

Legend:
Type in all cases: physicochemical
[1] = Solubility test of Form I and free base in different dissolution media; conditions: for solubility at 24 h: thermodynamic from solid, saturated for 24 hours
Method: Determination method: excess amount of Form I sample of compound of Formula A and its free base (compound 4-ethyl-N-(4-((3-ethynylphenyl)amino)-7-methoxyquinazolin-6-yl) piperazine-1-carboxamide) were suspended in different dissolution media respectively, and saturated for 24 hours under shaking at constant temperature, then filtered. The filtrates were used for determining solubility of the samples. The buffers of different pH, simulated gastric fluid, and simulated intestinal fluid were prepared according to the US pharmacopeia (USP40-NF35).

[2] = Stability of Form I under high temperature, high humidity and illumination conditions; conditions: for Purity A %: HPLC
Method: Determination method: the test sample of Form I of compound of Formula A was placed on a culture dish, which was uncovered and placed in sealed clean containers. The containers were placed under a temperature of 60° C. and an illumination of 4500 lx±500 lx respectively for 10 days; or the containers were placed under a temperature of 25° C. and a relative humidity of 92.5%%±5% and under a temperature of 40° C. and a relative humidity of 75%±5% respectively for 2 weeks.
Then sampled and investigated for the purity (using HPLC analysis) and crystalline form (using X-ray powder diffraction analysis) of the sample.

Hygroscopicity of Form I = experiment: Hygroscopicity of Form I
Method: Determination method: the test sample of Form I was weighed and placed on a culture dish, which was uncovered and placed in a sealed clean container with the relative humidity of 92.5%. Then the container was placed at room temperature for 10 days. Then sampled, weighed the sample after placed for 10 days, and compared with the weight of the sample before the test. Thereby the percentage of weight gain by hygroscopicity of the sample was calculated. The crystalline form was also investigated (using X-ray powder diffraction analysis).

[3] = aqueous buffer, pH 1.2 buffer, 25° C.
[4] = aqueous buffer, pH 2.1 buffer, 25° C.
[5] = aqueous buffer, pH 4.5 buffer, 25° C.
[6] = aqueous buffer, pH 6.8 buffer, 25° C.
[7] = aqueous buffer, pH 7.4 buffer, 25° C.
[8] = fassgf or other biorelevant, Simulated intestinal fluid (SIF), 20° C.
[9] = Simulated gastric fluid (SGF), 20° C.

Purity A % ([2]; 0 day (Table 1)) [%] | Purity A % ([2]; 0 day (Table 2)) [%] | Purity A % ([2]; 60° C., 10 days) [%] | Purity A % ([2]; 75 ± 5% RH/40° C., 2 weeks) [%] | Purity A % ([2]; 92.5 ± 5% RH/25° C., 2 weeks) [%] | Purity A % ([2]; 4500 lx ± 500 lx, 10 days) [%] | Stability (chemical purity and crystalline form), conclusion in words ([2]; high temperature and illumination 10 days, high humidity 2 weeks) | Crystal form after 10 days (Hygroscopicity of Form I; 92.5% RH, 25° C., 10 days, X-ray powder diffraction) | Weight gain after 10 days (%) (Hygroscopicity of Form I; 92.5% RH, 25° C., 10 days, succinate) | Hygroscopicity, conclusion in words (Hygroscopicity of Form I; high humidity condition for 10 days) | solubility at 24 h [1, 3] [µg/mL] | solubility at 24 h [1, 4] [µg/mL] | solubility at 24 h [1, 5] [µg/mL] | solubility at 24 h [1, 6] [µg/mL] | solubility at 24 h [1, 7] [µg/mL] | solubility at 24 h ([1]; aqueous buffer, pH 8.0 buffer, 25° C.) [µg/mL] | solubility at 24 h [1, 8] [µg/mL] | solubility at 24 h ([1]; Distilled water, 20° C.) [µg/mL] | solubility at 24 h [1, 9] [µg/mL] | Compound | Solubility compared with that of the free base, in words ([1]; data of Table 4, succinate)
 |  |  |  |  |  |  |  |  |  |  |  |  |  |  |  |  |  |  | C#Cc1cccc(Nc2ncnc3cc(OC)c(NC(=O)N4CCN(CC)CC4)cc23)c1.O=C(O)CCC(=O)O [compound of Formula A, 4-ethyl-N-(4-((3-ethynylphenyl)amino)-7-methoxyquinazolin-6-yl)piperazine-1-carboxamide succinate] | significantly increased; also recorded: significantly higher
99.37 | 98.98 | 98.68 | 99.08 | 98.98 | 99.29 | stable | not changed | 0.01 | non-hygroscopic | 103000 | 15500 | 10000 | 253 | 46.1 | 0.5 | 253 | 803 | 103000 | C#Cc1cccc(Nc2ncnc3cc(OC)c(NC(=O)N4CCN(CC)CC4)cc23)c1.O=C(O)CCC(=O)O [Form I, 4-ethyl-N-(4-((3-ethynylphenyl)amino)-7-methoxyquinazolin-6-yl)piperazine-1-carboxamide succinate] | 
 |  |  |  |  |  |  |  |  |  | 38500 (≈ 89400 µM) | 5450 (≈ 12700 µM) | 5.21 (≈ 12.1 µM) | 0.84 (≈ 1.95 µM) | 0.41 (≈ 0.952 µM) |  | 0.84 (≈ 1.95 µM) | 1 (≈ 2.32 µM) | 38500 (≈ 89400 µM) | C#Cc1cccc(Nc2ncnc3cc(OC)c(NC(=O)N4CCN(CC)CC4)cc23)c1 [free base, 4-ethyl-N-(4-((3-ethynylphenyl)amino)-7-methoxyquinazolin-6-yl)piperazine-1-carboxamide] | 
